# Experimental data published in PubChem BioAssay AID1963982 (Molecular Pharmacology Branch, DTP, NCI, 2024).
# System: 313798-341-R-J2-PDC spheroids, viability
# Test: Anticancer human tumor 313798-341-R-J2-PDC patient-derived cervical squamous cell carcinoma cell line growth inhibition [PI3K]
# Conditions: spheroids with HUVEC and MSC; for IC50: curve of first compound; for viability, T/C: stronger effect = lower value
# Description: Combinatorial screen of targeted agents with the PI3K inhibitors inavolisib, alpelisib, duvelisib, and copanlisib in multi-cell type tumor spheroids
# A high-throughput screen of multi-cell type tumor spheroids was designed to identify active combinations of targeted small molecules and PI3K pathway inhibitors. Complex spheroids include a stromal component modeled by human endothelial cells (HUVEC) and fibroblasts modeled by human mesenchymal stem cells (MSCs). The concentration ranges selected for each drug and investigational agent were based upon clinically achievable concentrations if the clinical Cmax of the agent was known.
# Compounds. The drugs and investigational agents: inavolisib (NSC800729), alpelisib (NSC765974), duvelisib (NSC772469), copanlisib (NSC816437), ipatasertib (NSC767898), afuresertib (NSC778305), talazoparib (NSC767125), sapanisertib (NSC764658), selumetinib (NSC741078), tovorafenib (DAY101, NSC766906), vemurafenib (NSC761431), ravoxertinib (NSC781343), sotorasib (NSC818433), MRTX1133 (NSC 836407), abemaciclib (NSC 768073), palbociclib (NSC758247), venetoclax (NSC 766270), SY5609 (NSC837396), enzalutamide (NSC755605), and darolutamide (NSC825331), were obtained from the National Cancer Institute (NCI) Developmental Therapeutics Program Chemical Repository. The FDA-approved anticancer drug set is available from the NCI Developmental Therapeutics Program. […] The stock solutions were prepared in dimethyl sulfoxide (DMSO, Sigma-Aldrich, St. Louis, MO, cat. D2650) at 800-fold the tested concentration and stored at -70 degrees C prior to their use. All drugs and investigational agents were tested over a range starting from a high concentration at or near the clinical Cmax and decreasing in half-log increments. If the clinical Cmax for an agent had not been determined, the highest concentration tested was 10 microM.
# Cell Culture. All cells were maintained in an incubator at 37 degrees C and 5% CO2 with 95% humidity. The PDC lines were cultured according to standard operating procedures established by the NCI PDMR (https://pdmr.cancer.gov/sops/default.htm). All PDCs were thawed and cultured in Matrigel-coated flasks prepared with a working solution of 1X Ham's F-12 nutrient mix, without supplementation (Invitrogen, Waltham, MA, cat. 11765054), 100 U/mL penicillin-streptomycin (Invitrogen, cat. 15140122), and 2.5% Matrigel (Corning Inc., Corning, NY, cat. 354248) for the first three passages. The 354836-022-R-J1-PDC, 475296-252-R-J1-PDC, and 997726-040-R-J2-PDC lines were cultured in 6A media, which includes advanced DMEM/F-12 (Thermo Fisher Scientific, cat. 12634028), 10 mM HEPES (Thermo Fisher Scientific, cat. 15630080), 1X GlutaMAX supplement (Thermo Fisher Scientific, cat. 35050061), 0.1 mg/mL primocin (InvivoGen, San Diego, CA, cat. ant-pm-2), 10% defined fetal bovine serum, heat inactivated (HyClone Laboratories Inc., Logan, UT, cat. SH30070.03HI), 50% L-WRN conditioned media (ATCC, cat. CRL-3276), 1.25 mM N-Acetyl-L-cysteine (Sigma-Aldrich, cat. A9165), 10 mM nicotinamide (Sigma-Aldrich, cat. N0636), 1X B-27 supplement (Thermo Fisher Scientific, cat. 17504044), 1X N-2 supplement (Thermo Fisher Scientific, cat. 17502048), and 10 microM Y-27632 dihydrochloride (Tocris Bioscience, Bristol, United Kingdom, cat. 1254). The 624824-186-R-J2-PDC line was cultured in 6C/Colon 1B media, which includes all 6A media components plus 50 ng/mL human EGF recombinant protein (Thermo Fisher Scientific, cat. PHG0311). […]
# 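Further: spheroids exposed to compounds for seven days.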
# 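Wherever viability, T/C is given: 100% = DMSO vehicle control viability.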
smiles,measurement,setting,value
CC(=O)c1c(C)c2cnc(Nc3ccc(N4CCNCC4)cn3)nc2n(C2CCCC2)c1=O + CC(Nc1ccc2c(c1)OCCn1cc(N3C(=O)OCC3C(F)F)nc1-2)C(N)=O,IC50,second compound 0.00316 µM,> 0.1 µM
same,IC50,second compound 0.01 µM,> 0.1 µM
same,IC50,second compound 0.0316 µM,> 0.1 µM
same,IC50,second compound 0.1 µM,> 0.1 µM
same,IC50,second compound 0.316 µM,> 0.1 µM
same,IC50,second compound 1 µM,> 0.1 µM
same,"viability, T/C","second compound 0.00316 µM, first compound 0.000316 µM",98.7%
same,"viability, T/C","second compound 0.00316 µM, first compound 0.001 µM",97.9%
same,"viability, T/C","second compound 0.00316 µM, first compound 0.00316 µM",107%
same,"viability, T/C","second compound 0.00316 µM, first compound 0.01 µM",102%
same,"viability, T/C","second compound 0.00316 µM, first compound 0.0316 µM",110%
same,"viability, T/C","second compound 0.00316 µM, first compound 0.1 µM",102%
same,"viability, T/C","second compound 0.01 µM, first compound 0.000316 µM",94.2%
same,"viability, T/C","second compound 0.01 µM, first compound 0.001 µM",100%
same,"viability, T/C","second compound 0.01 µM, first compound 0.00316 µM",113%
same,"viability, T/C","second compound 0.01 µM, first compound 0.01 µM",98.5%
same,"viability, T/C","second compound 0.01 µM, first compound 0.0316 µM",124%
same,"viability, T/C","second compound 0.01 µM, first compound 0.1 µM",99.3%
same,"viability, T/C","second compound 0.0316 µM, first compound 0.000316 µM",105%
same,"viability, T/C","second compound 0.0316 µM, first compound 0.001 µM",114%
same,"viability, T/C","second compound 0.0316 µM, first compound 0.00316 µM",108%
same,"viability, T/C","second compound 0.0316 µM, first compound 0.01 µM",110%
same,"viability, T/C","second compound 0.0316 µM, first compound 0.0316 µM",103%
same,"viability, T/C","second compound 0.0316 µM, first compound 0.1 µM",103%
same,"viability, T/C","second compound 0.1 µM, first compound 0.000316 µM",108%
same,"viability, T/C","second compound 0.1 µM, first compound 0.001 µM",102%
same,"viability, T/C","second compound 0.1 µM, first compound 0.00316 µM",102%
same,"viability, T/C","second compound 0.1 µM, first compound 0.01 µM",110%
same,"viability, T/C","second compound 0.1 µM, first compound 0.0316 µM",103%
same,"viability, T/C","second compound 0.1 µM, first compound 0.1 µM",113%
same,"viability, T/C","second compound 0.316 µM, first compound 0.000316 µM",82.8%
same,"viability, T/C","second compound 0.316 µM, first compound 0.001 µM",79.5%
same,"viability, T/C","second compound 0.316 µM, first compound 0.00316 µM",79.4%
same,"viability, T/C","second compound 0.316 µM, first compound 0.01 µM",86.1%
same,"viability, T/C","second compound 0.316 µM, first compound 0.0316 µM",83.8%
same,"viability, T/C","second compound 0.316 µM, first compound 0.1 µM",90.6%
same,"viability, T/C","second compound 1 µM, first compound 0.000316 µM",60.8%
same,"viability, T/C","second compound 1 µM, first compound 0.001 µM",57.5%
same,"viability, T/C","second compound 1 µM, first compound 0.00316 µM",58.3%
same,"viability, T/C","second compound 1 µM, first compound 0.01 µM",55.4%
same,"viability, T/C","second compound 1 µM, first compound 0.0316 µM",61.6%
same,"viability, T/C","second compound 1 µM, first compound 0.1 µM",56.5%
